The target in this assay is T1, Ba/F3 cell EGFR Exon20 ins NPH (Homo sapiens, UniProt P00533, INS773NPH).
T1 construct: expressed in transfected cells; host or cells: Ba/F3
Nature of the assay: Ba/F3 cell proliferation suppression, EGFR Exon20 ins NPH. The note with it: GI50 class; Ba/F3 cell line with NPH inserted at Exon20 of EGFR; 72 hours. The format is cell-based. In a few lines:
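Cells (3000–5000/well) plated 24 h before compound, 12-point 3-fold dilutions at 0.3 nM to 50 um final; Ba/F3 lines grown with 5 ng/ml IL-3. Viability by CellTiter-Glo luminescence after 72 h, growth ratio vs control, GI50 from curves; triplicate.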

For `C=CC(=O)Nc1cc(Nc2cc(N3OCC[C@@H]3Cc3cc(F)cc(F)c3)ncn2)c(OC)cc1N1CCN(C2CC2)CC1` [compound 1032, N-(2-(4-cyclopropylpiperazine-1-yl)-5-((6-(S)-(3-(3,5-difluorobenzyl)isoxazolidine-2-yl)pyrimidine-4-yl)amino)-4-methoxyphenyl) acrylamide], the “Ba/F3 (NPH) Activity” value is listed as “B (50 nM ≤ GI50 < 500 nM)”.
For `C=CC(=O)Nc1cc(Nc2cc(N3OCC[C@@H]3Cc3cccc(N(C)C)c3)ncn2)c(OC)cc1N1CCC(N2C[C@@H]3C[C@H]2CO3)CC1` [compound 1048, N-(2-(4-((1S,4S)-2-oxa-5-azabicyclo [2.2.1]heptane-5-yl)piperidine-1-yl)-5-((6-((S)-3-(3-(dimethylamino)benzyl)isoxazolidine-2-yl)pyrimidine-4-yl)amino)-4-methoxyphenyl) acrylamide] the value was “B (50 nM ≤ GI50 < 500 nM)”.
Turning to `C=CC(=O)Nc1cc(Nc2cc(N3OCC[C@@H]3c3cccc4ccccc34)ncn2)c(OC)cc1N1CCC(N2CCN(C3CC3)CC2)CC1` [Example 146, N-(2-(4-(4-cyclopropylpiperazine-1-yl)piperidine-1-yl)-4-methoxy-5-((6-((R)-3-(naphthalene-1-yl)isoxazolidine-2-yl)pyrimidine-4-yl)amino)phenyl)acrylamide], the “Ba/F3 (NPH) Activity” value is recorded as “B (50 nM ≤ GI50 < 500 nM)”.
For `C=CC(=O)Nc1cc(Nc2cc(N3OCC[C@@H]3c3cc(F)cc(Cl)c3)ncn2)c(OC)cc1N1CCC(N2CCN(C3CC3)[C@H](C)C2)CC1` [Example 158, N-(5-((6-((R)-3-(3-chloro-5-fluorophenyl)isoxazolidine-2-yl)pyrimidine-4-yl)amino)-2-(4-((R)-4-cyclopropyl-3-methylpiperazine-1-yl)piperidine-1-yl)-4-methoxyphenyl) acrylamide] the value was “A (GI50 < 50 nM)”.
To `C=CC(=O)Nc1cc(Nc2cc(N3OCC[C@@H]3c3cc(F)ccc3F)ncn2)c(OC)cc1N1CCC(N2C[C@@H](C)N(C3CC3)C[C@H]2C)CC1` [Example 172, N-(2-(4-((2R,5R)-4-cyclopropyl-2,5-dimethylpiperazine-1-yl)piperidine-1-yl)-5-((6-((R)-3-(2,5-difluorophenyl)isoxazolidine-2-yl)pyrimidine-4-yl)amino)-4-methoxypheny) acrylamide] belongs “A (GI50 < 50 nM)”; to `C=CC(=O)Nc1cc(Nc2cc(N3OCC[C@@H]3c3ccc(F)c(F)c3)ncn2)c(OC)cc1N1CCC(N2CCN(C3CC3)CC2)CC1` [Example 161, N-(2-(4-(4-cyclopropylpiperazine-1-yl)piperidine-1-yl)-5-((6-((R)-3-(3,4-difluorophenyl)isoxazolidine-2-yl)pyrimidine-4-yl)amino)-4-methoxyphenyl) acrylamide], “A (GI50 < 50 nM)”; to `C=CC(=O)Nc1cc(Nc2cc(N3OCC[C@@H]3Cc3ccccc3)ncn2)c(OC)cc1-n1ccnc1C` [compound 960, N-(5-((6-((S)-3-benzylisoxazolidine-2-yl)pyrimidine-4-yl)amino)-4-methoxy-2-(2-methyl-1H-imidazole-1-yl)phenyl)acrylamide], “B (50 nM ≤ GI50 < 500 nM)”.
Consider `C=CC(=O)Nc1cc(Nc2cc(N3OCC[C@@H]3c3cccc(C)c3F)ncn2)c(OC)cc1N1CC[C@@H](N(C)C)C1` [compound 860, N-(2-((R)-3-(dimethylamino)pyrolidine-1-yl)-5-((6-((R)-3-(2-fluoro-3-methylphenyl)isoxazolidine-2-yl)pyrimidine-4-yl)amino)-4-methoxyphenyl) acrylamide], for which the “Ba/F3 (NPH) Activity” value is recorded as “A (GI50 < 50 nM)”.
To `C=CC(=O)Nc1cc(Nc2cc(N3OCC[C@@H]3c3cc(F)ccc3F)ncn2)c(OC)cc1N1CCC(N2CCN(C3CCCC3)CC2)CC1` [Example 100, N-(2-(4-(4-cyclopentylpiperazine-1-yl)piperidine-1-yl)-5-((6-((R)-3-(2,5-difluorophenyl)isoxazolidine-2-yl)pyrimidine-4-yl)amino)-4-methoxyphenyl) acrylamide] belongs “A (GI50 < 50 nM)”.
On to `C=CC(=O)Nc1cc(Nc2cc(N3OCC[C@@H]3c3cc(F)cc(F)c3)ncn2)c(OC)cc1N1CCN(C2COC2)CC1` [Example 273, N-(5-((6-((R)-3-(3,5-difluorophenyl)isoxazolidine-2-yl)pyrimidine-4-yl)amino)-4-methoxy-2-(4-(oxetane-3-yl)piperazine-1-yl)phenyl)acrylamide], for which the “Ba/F3 (NPH) Activity” value is given as “B (50 nM ≤ GI50 < 500 nM)”.
To `C=CC(=O)Nc1cc(Nc2cc(N3OCC[C@@H]3Cc3ccccn3)ncn2)c(OC)cc1N1CCC(N2CCN(C3CC3)CC2)CC1` [compound 1059, N-(2-(4-(4-cyclopropylpiperazine-1-yl)piperidine-1-yl)-4-methoxy-5-((6-((S)-3-(pyridine-2-ylmethyl)isoxazolidine-2-yl)pyrimidine-4-yl)amino)phenyl)acrylamide] belongs “A (GI50 < 50 nM)”; to `C=CC(=O)Nc1cc(Nc2cc(N3OCC[C@@H]3c3ccccc3)ncn2)c(OC)cc1N1CCC(N2CCN(CC)CC2)CC1` [Example 55, N-(2-(4-(4-ethylpiperazine-1-yl)piperidine-1-yl)-4-methoxy-5-((6-((R)-3-phenylisoxazolidine-2-yl)pyrimidine-4-yl)amino)phenyl) acrylamide], “A (GI50 < 50 nM)”; to `C=CC(=O)Nc1cc(Nc2cc(N3OCC[C@@H]3c3ccc4ccccc4c3)ncn2)c(OC)cc1N1CCO[C@@H](C)C1` [compound 659, N-(4-methoxy-2-((S)-2-methylmorpholino)-5-((6-((R)-3-(naphthalene-2-yl)isoxazolidine-2-yl)pyrimidine-4-yl)amino)phenyl)acrylamide], “B (50 nM ≤ GI50 < 500 nM)”.
To `C=CC(=O)Nc1cc(Nc2cc(N3OCC[C@@H]3Cc3cccc(Cl)c3Cl)ncn2)c(OC)cc1N1CCC(N2C[C@@H]3C[C@H]2CO3)CC1` [compound 1012, N-(2-(4-((1S,4S)-2-oxa-5-azabicyclo [2.2.1]heptane-5-yl)piperidine-1-yl)-5-((6-((S)-3-(2,3-dichlorobenzyl)isoxazolidine-2-yl)pyrimidine-4-yl)amino)-4-methoxyphenyl) acrylamide] belongs “A (GI50 < 50 nM)”; to `C=CC(=O)Nc1cc(Nc2cc(N3OCC[C@H]3Cc3ccccc3)ncn2)c(OC)cc1N1CCN(C2CCCC2)CC1` [compound 977, N-(5-((6-((R)-3-benzylisoxazolidine-2-yl)pyrimidine-4-yl)amino)-2-(4-cyclopentylpiperazine-1-yl)-4-methoxyphenyl) acrylamide], “C (500 nM ≤ GI50 < 5000 nM)”.
In the case of `C=CC(=O)Nc1cc(Nc2cc(N3OCC[C@@H]3c3cc(F)cc(Cl)c3F)ncn2)c(OC)cc1N1CCC(N2CCN(C3CC3)CC2)CC1` [compound 938, N-(5-((6-((R)-3-(3-chloro-2,5-difluorophenyl)isoxazolidine-2-yl)pyrimidine-4-yl)amino)-2-(4-(4-cyclopropylpiperazine-1-yl)piperidine-1-yl)-4-methoxyphenyl) acrylamide], the “Ba/F3 (NPH) Activity” value is recorded as “A (GI50 < 50 nM)”.
To `C=CC(=O)Nc1cc(Nc2cc(N3OCC[C@@H]3c3ccc(Cl)c(Cl)c3)ncn2)c(OC)cc1N1C[C@@H]2C[C@H]1CN2CC` [compound 678, N-(5-((6-((R)-3-(3,4-dichlorophenyl)isoxazolidine-2-yl)pyrimidine-4-yl)amino)-2-((1S,4S)-5-ethyl-2,5-diazabicyclo[2.2.1]heptane-2-yl)-4-methoxyphenyl) acrylamide] belongs “A (GI50 < 50 nM)”; to `C=CC(=O)Nc1cc(Nc2cc(N3OCC[C@@H]3c3ccc(Cl)c(Cl)c3)ncn2)c(OC)cc1N1CCC(N2C[C@H]3C[C@@H]2CO3)CC1` [compound 690], “A (GI50 < 50 nM)”; to `C=CC(=O)Nc1cc(Nc2cc(N3OCC[C@@H]3c3ccc(C)nc3)ncn2)c(OC)cc1N1CCC(N2CCC(N3CCOCC3)CC2)CC1` [Example 235, N-(4-methoxy-5-((6-((R)-3-(6-methylpyridine-3-yl)isoxazolidine-2-yl)pyrimidine-4-yl)amino)-2-(4-morpholino-[1,4'-bipiperidine]-1'-yl)phenyl)acrylamide], “B (50 nM ≤ GI50 < 500 nM)”.
For `C=CC(=O)Nc1cc(Nc2cc(N3OCC[C@@H]3c3cc(F)ccc3F)ncn2)c(OC)cc1N1CCC(N2CCC3(CC2)CC3)CC1` [compound 828, N-(2-(4-(6-azaspiro[2.5]octan-6-yl)piperidine-1-yl)-5-((6-((R)-3-(2,5-difluorophenyl)isoxazolidine-2-yl)pyrimidine-4-yl)amino)-4-methoxyphenyl) acrylamide], the “Ba/F3 (NPH) Activity” value is reported as “A (GI50 < 50 nM)”.
As to `C=CC(=O)Nc1cc(Nc2cc(N3OCC[C@@H]3c3ccc(F)cc3)ncn2)c(OC)cc1N1CCC(N2CCN(C3CCC3)CC2)CC1` [Example 76, N-(2-(4-(4-cyclobutylpiperazine-1-yl)piperidine-1-yl)-5-((6-((R)-3-(4-fluorophenyl)isoxazolidine-2-yl)pyrimidine-4-yl)amino)-4-methoxyphenyl) acrylamide], the “Ba/F3 (NPH) Activity” value is listed as “A (GI50 < 50 nM)”.
For `C=CC(=O)Nc1cc(Nc2cc(N3OCC[C@@H]3c3ccccc3)ncn2)c(OC)cc1N1CCC(N2CCN(C(C)=O)CC2)CC1` [Example 284, N-(2-(4-(4-acetylpiperazine-1-yl)piperidine-1-yl)-4-methoxy-5-((6-((R)-3-phenylisoxazolidine-2-yl)pyrimidine-4-yl)amino)phenyl) acrylamide] the value was “A (GI50 < 50 nM)”; for `C=CC(=O)Nc1cc(Nc2cc(N3OCC[C@@H]3c3cccc(Cl)c3Cl)ncn2)c(OC)cc1N(C)CCN(C)C` [compound 516, N-(5-((6-((R)-3-(2,3-dichlorophenyl)isoxazolidine-2-yl)pyrimidine-4-yl)amino)-2-((2-(dimethylamino)ethyl)(methyl)amino)-4-methoxyphenyl) acrylamide], “A (GI50 < 50 nM)”.

(Values after patent US12157730B2, “Heteroaryl derivative, method for producing same, and pharmaceutical composition comprising same as effective component” (VORONOI INC., priority 2019, dated 2024).)
